What was measured:
Experiment in all cases: mobility shift kinase assay
Type in all cases: biochemical
[1] = biological target: FGFR3 (Homo sapiens, UniProt P22607)
[2] = biological target: FGFR1 (Homo sapiens, UniProt P11362)
[3] = biological target: FGFR2 (Homo sapiens, UniProt P21802)
FGFR2, sequence (P21802 22-821): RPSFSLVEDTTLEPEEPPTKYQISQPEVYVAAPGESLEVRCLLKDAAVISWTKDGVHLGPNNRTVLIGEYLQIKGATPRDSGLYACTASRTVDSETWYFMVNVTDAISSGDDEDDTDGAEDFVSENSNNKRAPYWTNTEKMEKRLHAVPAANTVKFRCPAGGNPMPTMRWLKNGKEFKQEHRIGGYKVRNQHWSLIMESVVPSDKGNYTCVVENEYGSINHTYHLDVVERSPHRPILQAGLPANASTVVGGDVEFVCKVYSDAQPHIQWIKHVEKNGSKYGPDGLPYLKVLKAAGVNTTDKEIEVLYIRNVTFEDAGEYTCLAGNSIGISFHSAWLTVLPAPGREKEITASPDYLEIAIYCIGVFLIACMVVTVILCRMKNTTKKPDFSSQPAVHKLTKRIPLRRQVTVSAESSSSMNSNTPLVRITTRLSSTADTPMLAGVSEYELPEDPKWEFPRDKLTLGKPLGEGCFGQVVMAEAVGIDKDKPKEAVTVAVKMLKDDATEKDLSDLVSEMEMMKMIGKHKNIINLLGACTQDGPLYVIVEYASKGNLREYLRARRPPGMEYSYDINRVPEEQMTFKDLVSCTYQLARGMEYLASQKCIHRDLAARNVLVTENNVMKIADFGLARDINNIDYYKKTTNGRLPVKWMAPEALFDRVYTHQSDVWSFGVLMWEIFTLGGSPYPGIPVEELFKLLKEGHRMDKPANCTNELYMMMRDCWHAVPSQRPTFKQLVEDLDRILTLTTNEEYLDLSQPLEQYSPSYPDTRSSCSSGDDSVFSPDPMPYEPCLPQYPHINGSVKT

FGFR1, sequence (P11362 22-822): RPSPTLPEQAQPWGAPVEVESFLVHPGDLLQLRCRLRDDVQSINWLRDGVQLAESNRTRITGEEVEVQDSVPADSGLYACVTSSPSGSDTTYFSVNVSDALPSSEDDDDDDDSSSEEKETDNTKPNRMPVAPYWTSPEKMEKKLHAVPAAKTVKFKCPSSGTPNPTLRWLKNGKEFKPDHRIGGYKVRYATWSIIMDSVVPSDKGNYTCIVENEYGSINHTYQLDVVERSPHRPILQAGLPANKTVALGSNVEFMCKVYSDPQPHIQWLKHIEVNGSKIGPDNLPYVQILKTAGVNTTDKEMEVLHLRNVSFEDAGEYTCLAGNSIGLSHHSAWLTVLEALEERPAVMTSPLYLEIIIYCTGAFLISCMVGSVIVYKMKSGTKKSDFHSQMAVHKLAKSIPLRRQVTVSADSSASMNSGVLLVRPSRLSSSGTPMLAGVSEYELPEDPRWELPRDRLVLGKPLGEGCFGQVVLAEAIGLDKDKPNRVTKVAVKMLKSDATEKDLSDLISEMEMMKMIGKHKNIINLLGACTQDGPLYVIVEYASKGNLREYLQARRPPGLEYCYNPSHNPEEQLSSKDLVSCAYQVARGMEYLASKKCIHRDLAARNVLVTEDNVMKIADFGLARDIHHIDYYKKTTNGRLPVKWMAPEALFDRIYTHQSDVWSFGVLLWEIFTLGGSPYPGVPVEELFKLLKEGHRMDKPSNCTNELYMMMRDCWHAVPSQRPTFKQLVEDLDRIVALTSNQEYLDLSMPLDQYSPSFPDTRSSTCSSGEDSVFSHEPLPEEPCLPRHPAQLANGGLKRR
FGFR3, sequence (P22607 23-806): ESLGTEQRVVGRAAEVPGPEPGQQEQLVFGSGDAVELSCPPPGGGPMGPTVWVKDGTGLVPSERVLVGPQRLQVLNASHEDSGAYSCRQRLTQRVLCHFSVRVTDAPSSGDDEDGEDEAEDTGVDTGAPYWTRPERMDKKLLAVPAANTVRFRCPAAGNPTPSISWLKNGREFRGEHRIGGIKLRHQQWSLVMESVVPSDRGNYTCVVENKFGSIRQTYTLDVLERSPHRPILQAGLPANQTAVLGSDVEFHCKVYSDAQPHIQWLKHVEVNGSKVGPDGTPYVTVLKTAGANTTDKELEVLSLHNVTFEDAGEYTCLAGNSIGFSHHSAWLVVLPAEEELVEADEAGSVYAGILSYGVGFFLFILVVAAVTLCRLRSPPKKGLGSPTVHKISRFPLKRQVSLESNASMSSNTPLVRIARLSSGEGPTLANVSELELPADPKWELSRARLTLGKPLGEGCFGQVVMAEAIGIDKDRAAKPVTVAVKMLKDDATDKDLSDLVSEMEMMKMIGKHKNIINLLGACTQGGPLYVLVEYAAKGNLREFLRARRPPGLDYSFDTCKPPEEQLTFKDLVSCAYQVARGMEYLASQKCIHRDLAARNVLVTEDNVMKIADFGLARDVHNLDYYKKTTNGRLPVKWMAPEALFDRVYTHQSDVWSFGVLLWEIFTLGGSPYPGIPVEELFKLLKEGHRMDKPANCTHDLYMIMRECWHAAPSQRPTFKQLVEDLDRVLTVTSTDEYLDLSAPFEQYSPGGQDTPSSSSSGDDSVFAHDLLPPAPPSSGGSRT

CYY292 was tested. Which IC50 [1] did it give?
The IC50 was 0.078 µM.

What about the IC50 [2] of the same substance?
Its IC50 is 0.028 µM.

What about the IC50 [3] of the same substance?
The IC50 was 0.028 µM.

From publication PMC10425802 (Genes & Diseases, 2023)
